# Results: ChEMBL document CHEMBL1152311, “A multipronged approach to the study of peruvian ethnomedicinal plants: a legacy of the ICBG-Peru Project” (J Nat Prod, 2009)
# System: Mycobacterium tuberculosis
# Assay: Antituberculosis activity against multidrug-resistant Mycobacterium tuberculosis
# Type: functional, organism-based
smiles,measurement,value
C[C@H](C/C=C\C(C)(C)OO)[C@H]1CC[C@@]2(C)[C@@H]3CC[C@H]4C(C)(C)[C@@H](O)CC[C@@]45C[C@@]35CC[C@]12C,IC50,27.3 µM
